Data published in ChEMBL document CHEMBL3879914, “Inhibitors of central nervous system vasoactive inhibitory peptide receptor 2” (2014).

Legend:
[1] = biological target: T1, Vasoactive intestinal polypeptide receptor 2 (Homo sapiens) (UniProt P41587); experiment: (§1) Antagonist activity at recombinant human N-terminal signal peptide/FLAG epitope-tagged VIPR2 expressed in HEK293 cells co-expressing CAMYEL assessed as inhibition of VIP-induced cAMP accumulation at 0.5 uM preincubated for 5 mins with luciferin, coelenterazine H followed by VIP addition measured after 5 mins by BRET assay relative to control; assay type: functional, cell-based
T1 sequence (whole entry): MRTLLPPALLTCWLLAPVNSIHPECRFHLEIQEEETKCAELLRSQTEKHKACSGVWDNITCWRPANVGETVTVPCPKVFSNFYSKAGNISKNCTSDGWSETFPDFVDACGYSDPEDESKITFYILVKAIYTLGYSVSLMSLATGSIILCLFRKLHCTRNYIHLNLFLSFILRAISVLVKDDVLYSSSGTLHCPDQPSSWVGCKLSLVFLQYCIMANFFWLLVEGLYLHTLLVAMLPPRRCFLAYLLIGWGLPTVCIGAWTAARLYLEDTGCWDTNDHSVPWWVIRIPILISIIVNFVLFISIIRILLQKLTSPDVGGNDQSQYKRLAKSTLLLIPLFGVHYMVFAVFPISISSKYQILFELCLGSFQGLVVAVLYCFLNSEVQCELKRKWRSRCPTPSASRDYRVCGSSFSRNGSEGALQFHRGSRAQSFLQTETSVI

[2] = biological target: T1, Vasoactive intestinal polypeptide receptor 2 (Homo sapiens); experiment: as §1, with “1” for “0.5”; assay type: functional, cell-based
[3] = biological target: T1, Vasoactive intestinal polypeptide receptor 2 (Homo sapiens); experiment: as §1, with “epitope-tagged Rluc8-fused” for “epitope-tagged”, “cells” for “cells co-expressing CAMYEL”, “human mVenus-beta-arrestin2 binding” for “cAMP accumulation”, “1” for “0.5”; assay type: cell-based
[4] = biological target: T1, Vasoactive intestinal polypeptide receptor 2 (Homo sapiens); experiment: as §1, with “5” for “0.5”; assay type: functional, cell-based
[5] = biological target: T1, Vasoactive intestinal polypeptide receptor 2 (Homo sapiens); experiment: as §1, with “epitope-tagged Rluc8-fused” for “epitope-tagged”, “cells” for “cells co-expressing CAMYEL”, “human mVenus-beta-arrestin2 binding” for “cAMP accumulation”, “5” for “0.5”; assay type: cell-based
[6] = biological target: T1, Vasoactive intestinal polypeptide receptor 2 (Homo sapiens); experiment: as §1, with “epitope-tagged Rluc8-fused” for “epitope-tagged”, “cells” for “cells co-expressing CAMYEL”, “human mVenus-beta-arrestin2 binding” for “cAMP accumulation”; assay type: cell-based

Row | inhibition [1] | inhibition [2] | inhibition [3] | inhibition [4] | inhibition [5] | inhibition [6] | Structure (SMILES)
1 | 14% | 22.3% | 18.6% | 21.1% | 16.4% | -0.5 to 18.8% | O=C(NC[C@@H](O)C[C@@H](Cc1ccccc1)C(=O)N[C@H]1c2ccccc2C[C@H]1O)c1ccc([N+](=O)[O-])cc1
2 | 21.1% | 20.4% | 23.2% | 28.2% | 32% | 10.5 to 30.1% | COc1ccc(S(=O)(=O)NC[C@@H](O)C[C@@H](Cc2ccccc2)C(=O)N[C@H]2c3ccccc3C[C@H]2O)cc1OC
3 | 11.8% | 7.4 to 15.9% | 1.4% | 7.4 to 15.2% | 19.7% | 3.7 to 17.4% | NC[C@@H](O)C[C@@H](Cc1ccccc1)C(=O)N[C@H]1c2ccccc2C[C@H]1O
4 | 17.6% | 14.8% | 25.3% | 12.3% | 31.5% | 21.9 to 23.9% | O=C(NC[C@@H](O)C[C@@H](Cc1ccccc1)C(=O)N[C@H]1c2ccccc2C[C@H]1O)c1c(Cl)cc(Cl)cc1Cl
5 | 17.6% | 14.3% | 35.1% | 9.1% | 26.1% | 17.6 to 36.4% | O=C(NC[C@@H](O)C[C@@H](Cc1ccccc1)C(=O)N[C@H]1c2ccccc2C[C@H]1O)c1ccccc1[N+](=O)[O-]
6 | -2.9% | 11.3% | 2.6% | 24.5% | 6.7% | 4.1 to 15.6% | CCCNc1ccc(S(=O)(=O)NC[C@@H](O)C[C@@H](Cc2ccccc2)C(=O)N[C@H]2c3ccccc3C[C@H]2O)cc1
7 | 13.8% | 22.1% | -1.6% | 69.5% | -1% | 6.3 to 34.2% | CNC(=O)c1ccc(S(=O)(=O)NC[C@@H](O)C[C@@H](Cc2ccccc2)C(=O)N[C@H]2c3ccccc3C[C@H]2O)cc1
8 | 20.8% | 22.5% | 27.7% | 19.1% | 33.3% | 26.2 to 30.3% | O=C(NC[C@@H](O)C[C@@H](Cc1ccccc1)C(=O)N[C@H]1c2ccccc2C[C@H]1O)c1ccco1
9 | 14.9% | 17.7% | 32.7% | 20.3% | 5.5% | 6.1 to 12.9% | O=C(NC[C@@H](O)C[C@@H](Cc1ccccc1)C(=O)N[C@H]1c2ccccc2C[C@H]1O)c1ccccn1
10 | 16.1% | 16.5% | 47.5% | 23.8% | 1.8% | 2.3 to 12.8% | C=Cc1ccc(C(=O)NC[C@@H](O)C[C@@H](Cc2ccccc2)C(=O)N[C@H]2c3ccccc3C[C@H]2O)cc1
11 | 28.6% | 22.3% | 28.3% | 28.3% | 52% | 5.3 to 40.1% | O=C(N[C@H]1c2ccccc2C[C@H]1O)[C@H](Cc1ccccc1)C[C@H](O)CNS(=O)(=O)c1ccccc1F
12 | 14.2% | 14.2% | 9.2% | 9.4% | 14.9% | 9.5 to 12.2% | O=C([C@@H](Cc1ccccc1)C[C@H](O)CNS(=O)(=O)c1ccc([N+](=O)[O-])cc1)N1CCCCC1
13 | 19.5% | 18.6% | 30.9% | 90% | 8.3% | 29.7 to 49.1% | CC(C)c1cc(C(C)C)c(S(=O)(=O)NC[C@@H](O)C[C@@H](Cc2ccccc2)C(=O)N[C@H]2c3ccccc3C[C@H]2O)c(C(C)C)c1
14 | 6.3% | 7.1% | 4.4% | 4.4% | 6.5% | -6.4 to 5.45% | O=C(NN1CCCCC1)[C@H](Cc1ccccc1)C[C@H](O)CNS(=O)(=O)c1ccc([N+](=O)[O-])cc1
15 | 14.1% | 10.9% | 20.3% | 23.3% | 31.8% | 2.8 to 27.6% | Cc1ccc(S(=O)(=O)NC[C@@H](O)C[C@@H](Cc2ccccc2)C(=O)N[C@H]2c3ccccc3C[C@H]2O)c(C)c1
16 | 42% | 63.1% | 83% | 98.5% | 92.9% | 58.1 to 95.7% | O=C(N[C@H]1c2ccccc2C[C@H]1O)[C@H](Cc1ccccc1)C[C@H](O)CNS(=O)(=O)c1ccc(C(F)(F)F)cc1

Row | inhibition [1] | inhibition [2] | inhibition [3] | inhibition [4] | inhibition [5] | inhibition [6] | Structure (SMILES)
17 | 17.2% | 18.2% | -2% | 20.6% | 11.8% | 8.1 to 16.2% | CC(C)Nc1ccc(S(=O)(=O)NC[C@@H](O)C[C@@H](Cc2ccccc2)C(=O)N[C@H]2c3ccccc3C[C@H]2O)cc1
18 | 15.5% | 19% | 15.2% | 18.6% | -3.1% | 7.75 to 9.9% | O=C(CCN1C(=O)C=CC1=O)NC[C@@H](O)C[C@@H](Cc1ccccc1)C(=O)N[C@H]1c2ccccc2C[C@H]1O
19 | -1.4% | 0.1% | 1.8% | 25.5% | -5.4% | 4.1 to 10.1% | O=C(N[C@H]1c2ccccc2C[C@H]1O)[C@H](Cc1ccccc1)C[C@H](O)CNS(=O)(=O)c1ccc(C(=O)N2CCOCC2)cc1
20 | -8.1% | -6.1% | 7.9% | -4.3% | 5.7% | -5.4 to 0.7% | CCN(CC)C(=O)[C@H](Cc1ccccc1)C[C@H](O)CNS(=O)(=O)c1ccc([N+](=O)[O-])cc1
21 | 21% | 21.1% | 37% | 24% | 29.1% | -3.8 to 26.6% | O=C(NC[C@@H](O)C[C@@H](Cc1ccccc1)C(=O)N[C@H]1c2ccccc2C[C@H]1O)C1CC1
22 | 23% | 18.8% | 24.8% | 24.7% | 21% | 10.7 to 22.9% | O=C(N[C@H]1c2ccccc2C[C@H]1O)[C@H](Cc1ccccc1)C[C@H](O)CNS(=O)(=O)c1ccccc1C(F)(F)F
23 | 13.2% | 16.3% | 11.1% | 23.5% | 9.7% | -2.9 to 16.6% | O=C(NC[C@@H](O)C[C@@H](Cc1ccccc1)C(=O)N[C@H]1c2ccccc2C[C@H]1O)c1ccc2ccccc2c1
24 | -5% | -2.5% | -1.3% | -2.8% | 0.4% | -1.2 to 13.4% | CC1CCC(NC(=O)[C@H](Cc2ccccc2)C[C@H](O)CNS(=O)(=O)c2ccc([N+](=O)[O-])cc2)CC1 (stereo partly specified)
25 | 5.1% | 6.6 to 69.5% | 5.9% | 17.4 to 69.5% | 0.6% | 4.8 to 9% | O=C(NC1CCCc2ccccc21)[C@@H](Cc1ccccc1)C[C@H](O)CNS(=O)(=O)c1ccc([N+](=O)[O-])cc1 (stereo partly specified)
26 | -5.4% | 4.7 to 13.8% | 20% | 13.8 to 18.2% | 24% | 21.1 to 23.9% | O=C(NCc1ccc(F)cc1F)[C@@H](Cc1ccccc1)C[C@H](O)CNS(=O)(=O)c1ccc([N+](=O)[O-])cc1
27 | 9.7% | 13% | 18.1% | 72.1% | 56.7% | 0% | CC(C)(C)c1ccc(S(=O)(=O)NC[C@@H](O)C[C@@H](Cc2ccccc2)C(=O)N[C@H]2c3ccccc3C[C@H]2O)cc1
28 | 14.6% | 12.6% | -9.8% | 9.7% | 7% | 3.5 to 8.35% | NC(=O)[C@@H](Cc1ccccc1)C[C@H](O)CNS(=O)(=O)c1ccc([N+](=O)[O-])cc1
29 | 36.5% | 44.2% | 63.1% | 98.2% | 87.7% | 31.5 to 93% | CC(C)c1ccc(S(=O)(=O)NC[C@@H](O)C[C@@H](Cc2ccccc2)C(=O)N[C@H]2c3ccccc3C[C@H]2O)cc1
30 | 15.5% | 10.6% | 3.6% | 14.3% | 6.8% | -4 to 10.6% | O=C(NC1CCCCCC1)[C@@H](Cc1ccccc1)C[C@H](O)CNS(=O)(=O)c1ccc([N+](=O)[O-])cc1
31 | 7.4% | 6.4% | -1.8% | 26% | 0.2% | 6.4 to 13.1% | O=C(O)c1ccc(S(=O)(=O)NC[C@@H](O)C[C@@H](Cc2ccccc2)C(=O)N[C@H]2c3ccccc3C[C@H]2O)cc1
